Data set [1] can be described thus: Uptake of αPLL of varying molecular weight by Formulation C lenses. Format: physicochemical. Particulars: 1.8 ml 500 ppm αPLL in PBS, autoclave and overnight storage at room temperature, hydrobromide. The method, then: Solutions of 500 ppm poly-L-lysine hydrobromide (CAS No. 25988-63-0) (αPLL) with varying molecular weight ranges were prepared in PBS. Lenses of Formulation C prepared as described in Example 1 were packaged with 1.8 ml of each solution and autoclaved. After autoclave and overnight storage at room temperature uptake of αPLL was measured.

Data set [2] can be described thus: Release of αPLL of varying molecular weight from Formulation C lenses. Format: physicochemical. Particulars: for release between the 6 hour and 24 hour time points (in words): hydrobromide. The method, then: Lenses of Formulations B-E prepared according to Example 1 were used in this study. The lenses were immersed in 1.2 ml of 500 ppm εPLL in PBS for 48 hours as described in Example 3. Excess solution was removed from each lens by gently blotting with an absorbent tissue. Each lens was immersed in 1 ml of ISO 10344 standard saline solution (0.83% sodium chloride, 0.0467% sodium phosphate monobasic, and 0.4486% sodium phosphate dibasic) in a well of a 12-well plate and covered. The plates were shaken at 100 rpm at 37±2° C. At 2, 4, 6, 8, 12, and 24 hours, the solution was removed from each well and replaced with 1 ml of fresh ISO 10344 standard saline solution. HPLC was used to determine the amount of εPLL released from each lens.
Polymer release was tested substantially as described in Example 4, except that the time points tested were at 2, 6, and 24 hr.

The values that follow come from patent US9498035B2, “Silicone hydrogel contact lenses for sustained release of beneficial polymers” (CooperVision International Holding Company, LP, priority 2012, dated 2016).

On to “poly-L-lysine hydrobromide [Formulation 30K-70K]”, for which the uptake in data set [1] is 299 μg/lens.

The substance “poly-L-lysine hydrobromide [Formulation 70K-150K]” came in with an uptake in data set [1] of 185 μg/lens. In addition, in data set [2] (time points 2, 6, and 24 hr), the “release of polymer detected (in words)” value was “No significant release”.

Consider “poly-L-lysine hydrobromide [Formulation 15K-30K]”, for which, in data set [1], the uptake came out at 414 μg/lens. In addition, the “release between the 6 hour and 24 hour time points (in words)” value in data set [2] is “significant release”.

Turning to “poly-L-lysine hydrobromide [Formulation 4K-15K]”, in data set [1], the uptake is given as 400 μg/lens. Also, the “release between the 6 hour and 24 hour time points (in words)” value in data set [2] is “significant release”.

Turning to “poly-L-lysine hydrobromide [Formulation 1K-5K]”, in data set [1], the uptake came to 142 μg/lens. In data set [2], the “duration of sustained release (in words)” value is “sustained for at least two hours”; the “release between the 6 hour and 24 hour time points (in words)” value is listed as “no significant release”.

In turn, “poly-L-lysine hydrobromide [Formulation 500-2K]” yielded an uptake in data set [1] of 122 μg/lens. In data set [2], the “duration of sustained release (in words)” value was “sustained for at least two hours”; the “release between the 6 hour and 24 hour time points (in words)” value was “no significant release”.
